These results are taken from US6265423A, “Aromatic polycyclic retinoid-type derivatives, method for preparing same, and use thereof for making pharmaceutical and cosmetic compositions” (priority 1996, dated 2001).

For series [1], the system named is T-47D human mammary cancer cells. As to the kind of experiment: MTT test, proliferation of T-47D. It counts as cell-based. As for the experimental part:
(§1) The cells that were cultured came from the ATCC (American Type Culture Collection).
(§2) The cellular lines are kept in culture in a monolayer at 37° C. in closed culture dishes (Nunc. Gibco BRL, Life Technologies, Belgium) containing the minimum essential medium (MEM, Gibco) supplemented with 5% of Foetal Calf Serum, (FCS, Gibco), 0.6 mg/ml of glutamine (Gibco) and a mixture of 200 IU/mi of penicillin (Gibco), 200 μg/ml of streptomycin (Gibco) and 0.1 mg/ml of gentamycin (Gibco). The foetal calf serum is decomplemented for 1 hour at 56° C.
(§3) This test is based on the mitochondrial reduction by living metabolically active cells of the MTT (3-(4,5-dimethylthiazol-2-yl)-2,5-diphenyltetrazolium bromide) of yellowish colour into a blue coloured product, formazan. The quantity of formazan obtained is directly proportional to the number of living cells. After incubation of the cells for 24 hours in microplates with 96 flat bottomed wells, the culture medium is replaced by 100 μl of fresh culture medium containing the drug to be tested.
(§4) The microplates are then incubated for 3 hours at 37° C. and centrifuged for 10 minutes at 400 g (GPR centrifuge, Beckman). The MTT solution is replaced by 100 μl of dimethylsulphoxide (Merck). The microplates are agitated (Vari-Shaker, Dynatech) for 10 minutes.
(§5) In the microplates, the control cells like the treated cells were incubated in a medium without the compounds to be tested for 24 hours. The control cells are incubated in a medium without a drug throughout the whole experiment, while the treated cells are incubated in different media. These media contain the molecule to be tested at various concentrations: 10^-8 M, 10^-6 M and 10^-4 M. All the tests are carried out in 6 duplicates.
(§6) The statistical comparisons are carried out according to the Fisher Test:
(§7) The mean optical density measured for each experimental condition is expressed as a percentage in relation to the laid down control condition being equal to 100%.
In general terms: Tetrazolium assays rely on reduction of a dye to a coloured formazan, in cell work by metabolically active cells.

Series [2] has as its system A-427 human pulmonary cancer cells. The series can be described thus: MTT test, proliferation of A-427. The note with it: Homo sapiens, A-427, 72 h, read-out: level of proliferation.
For series [3] the following is noted: cited from earlier work.
Series [4] has as its system ZR-75-1 human mammary cancer cells. As to the kind of experiment: MTT test, proliferation of ZR-75-1. It counts as cell-based. As for the experimental part: as §1, §2, §3, §4, §5, §6, §7
In series [5] the test system is A549 human pulmonary cancer cells. As to the kind of experiment: MTT test, proliferation of A549. It counts as cell-based.
Where [6] appears, read: Homo sapiens, A549, 72 h, read-out: level of proliferation.

Take `CC1=C(/C=C/C(C)=C/C=C/C(C)=C\C(=O)O)C(C)(C)CCC1` [CB81808, 13-cis retinoic acid, reference compound]: the activity at 100 µM in series [1] (Homo sapiens, T47D, T-47D, 10^-4 M, 72 h, control = 100%, read-out: level of proliferation) was 9.94%; in series [2], 6.5%; in series [4] (Homo sapiens, ZR-75-1, 10^-4 M, 72 h, control = 100%, read-out: level of proliferation) it was 2.3%; in series [5] (setting [6]), 23.6%. For the same compound, the activity at 1 µM came out at 51.8% in series [1] (Homo sapiens, T47D, T-47D, 10^-6 M, 72 h, control = 100%, read-out: level of proliferation); 99.6% in series [2]; 55% in series [4] (Homo sapiens, ZR-75-1, 10^-6 M, 72 h, control = 100%, read-out: level of proliferation); 85.9% in series [5] (setting [6]). Also, the activity at 0.01 µM is 70.3% in series [1] (Homo sapiens, T47D, T-47D, 10^-8 M, 72 h, control = 100%, read-out: level of proliferation); 100% in series [2]; 41.6% in series [4] (Homo sapiens, ZR-75-1, 10^-8 M, 72 h, control = 100%, read-out: level of proliferation); 77.6% in series [5] (setting [6]). For the same compound, the “effect on cellular increase, T-47D (in words)” value in series [1] (MTT test) is on record as “inhibit the cellular increase of the two mammary lineages at the concentrations tested”. The “adverse effects in chronic treatment (in words)” value in series [3] was “powerful effect of hypervitaminose, of mucocutaneous toxicity and of teratogenecity”. Also, the “effect on cellular increase, ZR-75-1 (in words)” value in series [4] (MTT test) was “inhibit the cellular increase of the two mammary lineages at the concentrations tested”. Further, the “effect on cellular increase, A549 (in words)” value in series [5] (MTT test) was “inhibit the proliferation of the A549 lineage at 10^-6 M and 10^-8 M”.
